Measurements published in article PMC6690782 (Bioorganic & medicinal chemistry letters, 2019).

What was measured:
[1] = cited from earlier work
[2] = target: LAT1 (Homo sapiens, UniProt Q01650); assay: cis-inhibition assay: inhibition of [3H]-gabapentin uptake into HEK-hLAT1 cells; type: cell-based; details: for fold decrease in potency relative to corresponding histidine/tryptophan analog: cis-inhibition IC50, 7d vs 16, 13 vs 22
LAT1, sequence (Q01650 whole entry): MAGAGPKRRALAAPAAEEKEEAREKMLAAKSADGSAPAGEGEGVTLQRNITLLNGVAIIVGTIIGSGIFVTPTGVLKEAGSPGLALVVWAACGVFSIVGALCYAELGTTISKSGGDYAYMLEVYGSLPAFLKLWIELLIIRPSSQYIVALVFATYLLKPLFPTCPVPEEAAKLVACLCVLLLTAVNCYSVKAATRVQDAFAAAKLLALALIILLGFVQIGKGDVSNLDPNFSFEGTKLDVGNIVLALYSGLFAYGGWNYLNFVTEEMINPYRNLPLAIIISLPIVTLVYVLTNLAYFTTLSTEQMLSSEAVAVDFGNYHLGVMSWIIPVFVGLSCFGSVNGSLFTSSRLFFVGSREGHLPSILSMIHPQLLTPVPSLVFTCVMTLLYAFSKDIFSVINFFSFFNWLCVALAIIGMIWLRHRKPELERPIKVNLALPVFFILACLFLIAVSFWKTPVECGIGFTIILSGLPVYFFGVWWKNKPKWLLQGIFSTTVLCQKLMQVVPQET
LAT1, sequence (P08195 102-630 partner): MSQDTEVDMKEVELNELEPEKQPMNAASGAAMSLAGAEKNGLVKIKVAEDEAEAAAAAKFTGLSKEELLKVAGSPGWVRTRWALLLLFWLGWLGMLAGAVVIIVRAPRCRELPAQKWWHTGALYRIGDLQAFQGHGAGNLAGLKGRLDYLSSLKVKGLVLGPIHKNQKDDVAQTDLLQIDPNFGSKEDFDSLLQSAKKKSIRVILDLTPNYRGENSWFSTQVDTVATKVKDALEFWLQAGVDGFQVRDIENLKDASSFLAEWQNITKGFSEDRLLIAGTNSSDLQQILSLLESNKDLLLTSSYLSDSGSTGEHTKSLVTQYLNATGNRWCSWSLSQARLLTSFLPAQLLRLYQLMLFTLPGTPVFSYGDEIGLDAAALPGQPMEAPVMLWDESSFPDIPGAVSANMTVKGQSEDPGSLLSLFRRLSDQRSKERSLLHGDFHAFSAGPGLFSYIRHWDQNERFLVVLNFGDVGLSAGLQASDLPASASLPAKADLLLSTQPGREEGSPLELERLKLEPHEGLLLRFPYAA

| fold decrease in potency relative to corresponding histidine/tryptophan analog [2] [fold] | inhibition at 200 µM [2] [%] | Structure (SMILES) | further results |
| --- | --- | --- | --- |
| – | – | c1c[nH]nn1 [1,2,3-triazole] | pKa of conjugate acid [1]: 1.15 |
| 2 | – | Cc1cn(C[C@H](N)C(=O)O)nn1 [Compound 7d] | – |
| – | -19 | N[C@@H](Cc1cn(Cc2ccccc2)nn1)C(=O)O [Compound 11e] | – |
| 2 | – | N[C@@H](Cn1nnc2ccccc21)C(=O)O [Compound 13] | – |
| – | 74 | N[C@@H](Cc1cn(Cc2ccccc2)cn1)C(=O)O [Compound 17, reference compound] | – |
